The source of these data is US9758492B2, “IDO inhibitors” (Bristol-Myers Squibb Company, priority 2013, dated 2017).

The target in one experiment is T1, Human IDO1 (Homo sapiens, UniProt P14902).
T1 construct: expressed in transfected cells; host or cells: HEK293
In words: IDO Kynurenine Assay with Human IDO1/HEK293 Cells. Format: cell-based. The following applies: read-out: HEK human IDO-1 (IC50). On the procedure: IDO Kynurenine Assay with Human IDO1/HEK293 Cells
Human IDO1/HEK293 cells were seeded at 10,000 cells per 50 uL per well with RPMI/phenol red free media contains 10% FBS in a 384-well black wall clear bottom tissue culture plate (Matrix Technologies LLC) 125 nL of certain concentration of compound was then added to each well using ECHO liquid handling systems. The cells were incubated for 20 hours in 37° C. incubator with 5% CO2.
The compound treatments were stopped by adding Trichloroacetic Acid (Sigma-Aldrich) to a final concentration at 0.2%. The cell plate was further incubated at 50° C. for 30 minute. The equal volume supernatant (20 uL) and 0.2% (w/v) Ehrlich reagent (4-dimethylaminobenzaldehyde, Sigma-Aldrich) in glacial acetic acid were mixed in a new clear bottom 384-well plate. This plate was then incubated at room temperature for 30 minute. The absorbance at 490 nm was measured on Envision plate reader.
Compound IC50 values were calculated using the counts of 500 nM of a reference standard treatment as one hundred percent inhibition, and counts of no compound but DMSO treatment as zero percent inhibition.

A further experiment addresses IDO (Homo sapiens, UniProt P14902). In words: LLE_IDO_ABS_DR (IDO assay).

Sequence of IDO (P14902 whole entry): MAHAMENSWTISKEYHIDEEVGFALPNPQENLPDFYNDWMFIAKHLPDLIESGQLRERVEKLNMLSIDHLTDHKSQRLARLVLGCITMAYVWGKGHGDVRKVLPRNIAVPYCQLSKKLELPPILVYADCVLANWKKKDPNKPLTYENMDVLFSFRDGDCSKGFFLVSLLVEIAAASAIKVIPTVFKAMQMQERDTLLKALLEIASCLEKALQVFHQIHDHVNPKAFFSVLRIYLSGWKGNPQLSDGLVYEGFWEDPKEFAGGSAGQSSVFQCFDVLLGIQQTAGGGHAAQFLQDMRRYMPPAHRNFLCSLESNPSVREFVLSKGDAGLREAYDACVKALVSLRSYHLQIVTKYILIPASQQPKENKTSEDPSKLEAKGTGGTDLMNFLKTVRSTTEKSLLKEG
T1 sequence (P14902 whole entry): as above

In the case of `Cc1ccc(NC(=O)Nc2cc(-c3ccccc3-c3nnn[nH]3)ccc2N(CC(C)(F)F)C2CCCCC2)cc1` [Example 356, 1-(4-(cyclohexyl(2,2-difluoropropyl)amino)-2′-(1H-tetrazol-5-yl)-[1,1′-biphenyl]-3-yl)-3-(p-tolyl)urea], on Human IDO1, the IC50 came to 4.06 nM.

`C=C(C)CN(CCCC(F)(F)F)c1ccc(-c2ccccc2-c2nnn[nH]2)cc1NC(=O)Nc1ccc(C)cc1` [Example 417]: the IC50 at Human IDO1 was determined as 1.89 nM.

Regarding `CCC(CC)N(CC(C)C)c1ccc(-c2cc(F)ccc2C(=O)O)cc1NC(=O)Nc1ccc(Cl)cc1F` [Example 442], the IC50 at Human IDO1 worked out at 2.23 nM.

For `CC(C)CN(c1ccc(-c2cc(F)ccc2C(=O)O)cc1NC(=O)Nc1ccc2nccnc2c1)C1CCCCC1` [Example 406], the IC50 at Human IDO1 came out at 7.59 nM.

Consider `Cc1ccc(C(=O)O)c(-c2ccc(N(CC(C)C)CC(C)C)c(NC(=O)Nc3ccc(F)cc3F)c2)c1` [Example 528, 3′-(3-(2,4-Difluorophenyl)ureido)-4′-(diisobutylamino)-5-methyl-[1,1′-biphenyl]-2-carboxylic acid], for which the IC50 at Human IDO1 was 160 nM.

On to `CC(C)CN(c1ccc(-c2cc(F)ccc2C(=O)O)cc1NC(=O)Nc1cnc2c(c1)ncn2C)C1CCCCC1` [Example 487], for which the IC50 on Human IDO1 came to 1050 nM.

For the compound `CCC(CC)N(CC(C)C)c1ccc(-c2cc(F)ccc2C(=O)O)cc1NC(=O)Nc1ccccc1F` [Example 450], on Human IDO1, the IC50 was found to be 5.47 nM.

In the case of `Cc1cc(NC(=O)Nc2cc(-c3cc(F)ccc3C(=O)O)ccc2N(CC(C)C)C2CCCCC2)no1` [Example 408], the IC50 on Human IDO1 was found to be 10 nM.

For the compound `Cc1ccc(NC(=O)Nc2cc(-c3cc(F)ccc3C(=O)O)ccc2N(CCCC(F)(F)F)C2CCCCC2)cc1` [Example 415], the IC50 at Human IDO1 stood at 130 nM.

With `Cc1ccc(NC(=O)Nc2cc(-c3ccccc3C(=O)O)c(F)cc2N(CC(C)C)C2CCC(F)(F)CC2)cc1` [Example 533, 4′-((4,4-Difluorocyclohexyl)(isobutyl)amino)-2′-fluoro-5′-(3-(p-tolyl)ureido)-[1,1′-biphenyl]-2-carboxylic acid], the IC50 at Human IDO1 was 8.02 nM.

For the compound `Cc1ccc(NC(=O)Nc2cc(-c3cc(F)ccc3C(=O)O)ccc2N(CC(C)C)C2CCCCC2)cn1` [Example 399], on Human IDO1, the IC50 worked out at 20 nM.

Turning to `CC(C)CN(c1ccc(-c2cc(F)ccc2C(=O)O)cc1NC(=O)Nc1ccnnc1)C1CCCCC1` [Example 401], the IC50 at Human IDO1 stood at 1180 nM.

On to `COc1ccc(-c2ccc(N(CC(C)C)CC(C)C)c(NC(=O)Nc3ccc(Cl)cc3F)c2)c(C(=O)O)c1` [Example 494], for which the IC50 on Human IDO1 came to 30 nM.

Consider `[2H]C([2H])(C(C)C)N(c1ccc(-c2cc(F)ccc2C(=O)O)cc1NC(=O)Nc1ccc(C)cc1)C([2H])([2H])C(C)C` [Example 477], for which, on Human IDO1, the IC50 amounted to 7.65 nM.

In turn, `Cc1ccc(NC(=O)Nc2cc(-c3cc(F)ccc3C(=O)O)ccc2N(C)CC(C)C)cc1` [Example 181, 5-fluoro-4′-(isobutyl(methyl)amino)-3′-(3-(p-tolyl)ureido)-[1,1′-biphenyl]-2-carboxylic acid] had an IC50 at IDO of 270 nM.

Consider `CCCN(c1ccc(-c2cc(F)ccc2C(=O)O)cc1NC(=O)Nc1ccccc1F)C1CCCC1` [Example 167, 4′-(cyclopentyl(propyl)amino)-5-fluoro-3′-(3-(2-fluorophenyl)ureido)biphenyl-2-carboxylic acid], for which it took 40 nM to reach half-maximal inhibition at IDO (IC50).

In the case of `Cc1ccc(NC(=O)Nc2cc(-c3ccccc3-c3nnn[nH]3)ccc2N(CC2CC2)CC2CC2)cc1` [Example 66, 1-(4-(bis(cyclopropyl-methyl)amino)-2′-(1H-tetrazol-5-yl)biphenyl-3-yl)-3-p-tolylurea], the concentration for half-maximal inhibition (IC50) against IDO was determined as 30 nM.

Compound `CCCCN(CCCC)c1ccc(-c2sccc2C(=O)O)cc1NC(=O)Nc1ccc(C)cc1` [Example 91, 2-(4-(dibutylamino)-3-(3-p-tolylureido)phenyl)thiophene-3-carboxylic acid] came in with an IC50 against IDO of 60 nM.

`C#CCN(CC(C)C)c1ccc(-c2cc(F)ccc2C(=O)O)cc1NC(=O)Nc1ccc(C)cc1` [Example 23, 5-Fluoro-4′-(isobutyl(prop-2-yn-1-yl)amino)-3′-(3-(p-tolyl)ureido)-[1,1′-biphenyl]-2-carboxylic acid] registered an IC50 against IDO of 450 nM.
